# Results reported in ChEMBL document CHEMBL1147549, “Imidazole acetic acid TAFIa inhibitors: SAR studies centered around the basic P(1)(') group” (Bioorg Med Chem Lett, 2004).
# What was measured:
# Carboxypeptidase B = biological target: T1, Carboxypeptidase B (Homo sapiens, UniProt P15086); experiment: Inhibition of human carboxypeptidase B (CPB)
# T1 sequence (P15086 whole entry): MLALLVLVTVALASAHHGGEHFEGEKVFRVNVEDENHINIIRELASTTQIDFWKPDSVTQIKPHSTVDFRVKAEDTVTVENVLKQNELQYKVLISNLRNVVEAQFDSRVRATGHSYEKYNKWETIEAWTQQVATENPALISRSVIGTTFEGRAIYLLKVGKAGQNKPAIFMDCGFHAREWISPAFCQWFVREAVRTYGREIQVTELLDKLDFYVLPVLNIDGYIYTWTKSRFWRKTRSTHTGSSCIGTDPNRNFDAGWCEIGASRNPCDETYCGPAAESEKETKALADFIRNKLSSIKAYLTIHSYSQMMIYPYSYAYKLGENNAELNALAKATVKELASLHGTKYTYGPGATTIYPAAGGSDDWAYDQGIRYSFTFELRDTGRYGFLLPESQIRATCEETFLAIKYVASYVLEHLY
# [1] = Concentration providing 50% acceleration of clot lysis in pooled human plasma; type: functional
# Carboxypeptidase B2 = biological target: T2, Carboxypeptidase B2 (Homo sapiens, UniProt Q96IY4); experiment: Inhibitory potency against human TAFIa (thrombin-activatable fibrinolysis inhibitor)
# T2 sequence (Q96IY4 whole entry): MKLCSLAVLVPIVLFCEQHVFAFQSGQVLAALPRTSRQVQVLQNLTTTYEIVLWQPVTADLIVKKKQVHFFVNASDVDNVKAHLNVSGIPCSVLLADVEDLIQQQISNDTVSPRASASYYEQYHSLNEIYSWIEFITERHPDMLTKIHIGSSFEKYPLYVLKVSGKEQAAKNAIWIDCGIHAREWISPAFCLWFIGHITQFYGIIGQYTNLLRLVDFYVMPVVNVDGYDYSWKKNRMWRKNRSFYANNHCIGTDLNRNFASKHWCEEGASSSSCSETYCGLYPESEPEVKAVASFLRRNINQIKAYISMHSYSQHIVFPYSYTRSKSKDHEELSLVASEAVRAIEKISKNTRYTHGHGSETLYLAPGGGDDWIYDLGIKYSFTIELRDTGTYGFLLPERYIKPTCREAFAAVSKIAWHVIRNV
# Homo sapiens = species: Homo sapiens; experiment: Selectivity for TAFIa versus CPB carboxypeptidase B isoforms
SMILES,IC50 (Carboxypeptidase B),IC50 (Carboxypeptidase B2),Selectivity (Homo sapiens),CLT50 [1]
NC1CCCC(CC(C(=O)O)c2c[nH]cn2)C1 (configuration not stated),,> 20 µM,,
O=C(O)C(CC1CCCNCC1)c1c[nH]cn1 (configuration not stated),,> 20 µM,,
Nc1cc(CC(C(=O)O)c2c[nH]cn2)ccn1 (configuration not stated),,12 µM,,
CNCCCCC(C(=O)O)c1cnc[nH]1 (configuration not stated),,26 µM,,
CN(C)CCCCC(C(=O)O)c1cnc[nH]1 (configuration not stated),,> 50 µM,,
O=C(O)C(CC1CCNCC1)c1cnc[nH]1 (configuration not stated),,> 20 µM,,
Nc1ccc(CC(C(=O)O)c2c[nH]cn2)cn1 (configuration not stated),0.07 µM,,,0.97 µM
CC(C)CCn1cnc(C(Cc2ccc(N)nc2)C(=O)O)c1 (configuration not stated),0.004 µM,,,==0.12 uM
CC(CN)CCC(C(=O)O)c1c[nH]cn1 (configuration not stated),,,5.6,
O=C(O)C(CCC1CCCNCC1)c1cnc[nH]1 (configuration not stated),,> 20 µM,,
O=C(O)C(CCC1CCNC1)c1cnc[nH]1 (configuration not stated),,> 20 µM,,
Nc1ncc(CC(C(=O)O)c2c[nH]cn2)cn1 (configuration not stated),,67 µM,,
O=C(O)C(CCC1CNC1)c1cnc[nH]1 (configuration not stated),,> 20 µM,,
O=C(O)C(CC1CCNC1)c1c[nH]cn1 (configuration not stated),,> 20 µM,,
O=C(O)C(CCC1CCNCC1)c1c[nH]cn1 (configuration not stated),,> 20 µM,,
CNc1ccc(CC(C(=O)O)c2cnc[nH]2)cn1 (configuration not stated),,13 µM,,
O=C(O)C(CC1CNC1)c1cnc[nH]1 (configuration not stated),,> 20 µM,,
Nc1cccc(CC(C(=O)O)c2cnc[nH]2)n1 (configuration not stated),,15 µM,,

# The remaining molecules from weak to strong by IC50 (Carboxypeptidase B2), led by results:
IC50 (Carboxypeptidase B),IC50 (Carboxypeptidase B2),Selectivity (Homo sapiens),SMILES,CLT50 [1]
,7 µM,,NC1CCC(CC(C(=O)O)c2cnc[nH]2)CC1 (configuration not stated),
,6.8 µM,,NCCCC(C(=O)O)c1cnc[nH]1 (configuration not stated),
,6.7 µM,,Nc1ncc(CC(C(=O)O)c2c[nH]cn2)cc1F (configuration not stated),
,5.8 µM,,Cc1nc(N)ccc1CC(C(=O)O)c1c[nH]cn1 (configuration not stated),
,5.3 µM,,Nc1ncc(CC(C(=O)O)c2cnc[nH]2)cc1Cl (configuration not stated),
,4.7 µM,,NCCCCCC(C(=O)O)c1cnc[nH]1 (configuration not stated),
,3.3 µM,,O=C(O)C(Cc1ccc2nccn2c1)c1cnc[nH]1 (configuration not stated),
,1.5 µM,,Cc1cc(N)ncc1CC(C(=O)O)c1c[nH]cn1 (configuration not stated),
3.7 µM,0.59 µM,6.3,NCCCCC(C(=O)O)c1c[nH]cn1 (configuration not stated),>=20 uM
0.6 µM,0.38 µM,1.6,CC(C)(CN)CCC(C(=O)O)c1c[nH]cn1 (configuration not stated),
1.5 µM,0.27 µM,,CC(CN)CCC(C(=O)O)c1cnc[nH]1 (configuration not stated),
0.02 µM,0.1 µM,0.2,Cc1cc(CC(C(=O)O)c2c[nH]cn2)cnc1N (configuration not stated),2.1 µM
0.16 µM,0.024 µM,6.7,CC(C)CCn1cnc(C(CCCCN)C(=O)O)c1 (configuration not stated),0.21 µM
0.001 µM,0.023 µM,0.04,Cc1cc(CC(C(=O)O)c2cn(CCC(C)C)cn2)cnc1N (configuration not stated),0.17 µM
0.001 µM,0.012 µM,0.08,Cc1cc(CC(C(=O)O)c2cn(CCC(C)(C)C)cn2)cnc1N (configuration not stated),0.159 µM
0.001 µM,0.001 µM,1,CC(C)(C)CCn1cnc(C(C[C@H]2CC[C@H](N)C2)C(=O)O)c1 (some centres not stated),0.014 µM
